Results as given in patent publication US8003669B2, “Remedy for sleep disturbance” (Mitsubishi Tanabe Pharma Corporation, priority 2002, dated 2011).

Experiments:
rats = assay: Antagonistic action of the ORL-1 receptor antagonist on the phase advancement by the ORL-1 receptor agonist; assay type: in vivo, rat; settings: constant dark, oral
human ORL-1 receptor = human ORL-1 receptor (Homo sapiens, UniProt P41146); assay: Agonist action: inhibition of forskolin-stimulated cAMP elevation in HEK293 cells; assay type: cell-based; settings: HEK293 cells expressing human ORL-1 receptor, forskolin 1 μmol/L
ORL-1 receptor = molecular target: T1, ORL-1 receptor (Rattus norvegicus, UniProt P35370); assay: ORL-1 receptor binding test ([3H]-nociceptin); settings: receptor prepared from cerebral cortex of rat
T1 construct: a standard product of the receptor prepared from cerebral cortex of rat; from tissue; host or cells: rat cerebral cortex
T1 sequence (P35370 whole entry): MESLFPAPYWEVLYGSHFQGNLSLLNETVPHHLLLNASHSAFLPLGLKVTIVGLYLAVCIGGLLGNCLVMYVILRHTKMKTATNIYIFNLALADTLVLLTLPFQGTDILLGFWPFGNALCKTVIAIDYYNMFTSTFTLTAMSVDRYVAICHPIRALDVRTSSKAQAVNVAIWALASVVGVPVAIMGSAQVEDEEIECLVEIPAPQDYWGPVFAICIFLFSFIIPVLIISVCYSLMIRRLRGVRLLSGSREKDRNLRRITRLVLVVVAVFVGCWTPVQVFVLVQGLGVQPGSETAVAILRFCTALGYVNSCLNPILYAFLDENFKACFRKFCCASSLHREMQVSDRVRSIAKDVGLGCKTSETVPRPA

human ORL-1 receptor, sequence (P41146 whole entry): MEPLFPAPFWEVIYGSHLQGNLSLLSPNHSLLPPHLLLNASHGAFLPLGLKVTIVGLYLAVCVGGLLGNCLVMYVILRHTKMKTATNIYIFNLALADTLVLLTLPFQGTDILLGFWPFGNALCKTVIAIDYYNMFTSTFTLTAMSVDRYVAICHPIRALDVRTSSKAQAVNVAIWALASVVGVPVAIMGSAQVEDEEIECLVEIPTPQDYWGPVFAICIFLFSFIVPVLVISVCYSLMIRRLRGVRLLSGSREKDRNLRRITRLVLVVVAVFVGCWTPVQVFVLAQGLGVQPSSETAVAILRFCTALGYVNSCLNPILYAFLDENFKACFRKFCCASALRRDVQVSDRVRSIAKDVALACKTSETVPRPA

- inhibition of cAMP production (ORL-1 receptor agonistic activity) (human ORL-1 receptor): did not inhibit cAMP production
- IC50 (ORL-1 receptor; 25° C., 20 minutes, read-out: IC50 value, inhibition of the binding of [3H]-nociceptin): 500 nM
- Ki (ORL-1 receptor; Ki=IC50/(1+L/Kd), read-out: Ki value, inhibition of the binding of [3H]-nociceptin): 60.6 nM
SMILES: CCc1ccc(OCc2ccccc2C(=O)Nc2ccc3nc(C)cc(N)c3c2)cc1.Cl [compound D, N-(4-amino-2-methylquinolin-6-yl)-2-(4-ethylphenoxymethyl)benzamide hydrochloride]
- phase shift for the ORL-1 receptor antagonist alone (rats): no phase shift was observed
